The numbers were not newly measured in patent publication US8507698B2, “Artemisinin derivatives for the treatment of melanoma” (Lachifarma S.R.L. Laboratorio Chimico Farmaceutico Salentino, priority 2007, dated 2013), which cites them from elsewhere.

The test system of the data set is cell line of oral cancer (YD-10B). The note with it: read-out: CI50 (the source's name).

Take `CC(=O)O[C@H]1C(=O)[C@@]2(C)[C@H]([C@H](OC(=O)c3ccccc3)[C@]3(O)C[C@H](OC(=O)[C@H](O)[C@@H](NC(=O)c4ccccc4)c4ccccc4)C(C)=C1C3(C)C)[C@]1(OC(C)=O)CO[C@@H]1C[C@@H]2O` [paclitaxel]: the IC50 is 13.1 µM.
